Results published in US8022219B2, “2-hydroxymethy1-3,4,5-trihydroxy-1-(4-pentyloxybenzyl) piperidine as glucosylceramide synthase (Gcs) inhibitor” (Actelion Pharmaceuticals Ltd., priority 2003, dated 2011).

Key:
[1] = molecular target: T1, non-lysosomal-β-glucocerebrosidase (Homo sapiens, UniProt Q9HCG7); assay: Inhibition of non-lysosomal-β-glucocerebrosidase; type: biochemical; conditions: whole cell extracts of MCF7 as enzyme source; 5 mM 4-MU β-glucoside; 0.2M citrate/phosphate pH 5.8
T1 construct: whole cell extracts of MCF7 (a human breast carcinoma cell line) was used as the source of the enzyme; endogenous in cells; host or cells: MCF7 whole cell extract
T1 sequence (Q9HCG7 1-927): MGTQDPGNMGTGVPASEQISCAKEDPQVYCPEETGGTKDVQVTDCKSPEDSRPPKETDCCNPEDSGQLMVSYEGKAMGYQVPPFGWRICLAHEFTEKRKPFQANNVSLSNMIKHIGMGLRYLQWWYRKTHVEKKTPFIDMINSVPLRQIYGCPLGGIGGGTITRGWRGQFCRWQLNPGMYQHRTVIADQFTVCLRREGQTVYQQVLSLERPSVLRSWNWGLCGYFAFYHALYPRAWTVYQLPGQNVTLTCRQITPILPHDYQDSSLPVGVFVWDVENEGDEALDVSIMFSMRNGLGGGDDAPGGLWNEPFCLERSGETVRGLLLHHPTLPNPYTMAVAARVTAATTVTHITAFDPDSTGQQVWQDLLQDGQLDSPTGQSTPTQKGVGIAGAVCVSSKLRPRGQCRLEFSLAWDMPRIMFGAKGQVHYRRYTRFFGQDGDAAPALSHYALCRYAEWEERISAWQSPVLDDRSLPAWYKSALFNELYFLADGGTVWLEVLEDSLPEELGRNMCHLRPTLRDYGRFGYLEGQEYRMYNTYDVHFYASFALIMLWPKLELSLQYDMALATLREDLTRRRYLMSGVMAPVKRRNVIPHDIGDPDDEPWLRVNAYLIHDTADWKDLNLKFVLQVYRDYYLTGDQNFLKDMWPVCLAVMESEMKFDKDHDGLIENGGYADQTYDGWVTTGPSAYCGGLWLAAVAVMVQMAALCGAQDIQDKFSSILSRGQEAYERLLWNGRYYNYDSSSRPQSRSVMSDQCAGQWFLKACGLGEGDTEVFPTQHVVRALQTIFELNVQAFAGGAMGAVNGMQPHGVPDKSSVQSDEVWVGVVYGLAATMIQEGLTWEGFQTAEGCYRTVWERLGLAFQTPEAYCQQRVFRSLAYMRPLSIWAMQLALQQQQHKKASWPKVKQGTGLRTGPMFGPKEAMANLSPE
Description: Inhibition of Non-Lysosomal-β-Glucocerebrosidase
The assay for inhibition of non-lysosomal-β-glucocerebrosidase was essentially carried out as described in Overkleeft, H. S. et al., J. Biol. Chem., 1998, 273, 26522-26527, with the following differences: whole cell extracts of MCF7 (a human breast carcinoma cell line) was used as the source of the enzyme instead of splenic membrane suspensions; 5 mM instead of 3 mM, 4-MU β-glucoside was used as substrate and 0.2M citrate/phosphate (pH 5.8) was used instead of McIlvaine buffer.

[2] = molecular target: T2, human recombinant GCS expressed in insect cells (Homo sapiens, UniProt Q16739); assay: Inhibition of GCS; type: biochemical; conditions: read-out: Inhibition of glucosylceramide synthase (IC50 μM)
T2 construct: made in house; host or cells: insect cells
T2 sequence (Q16739 1-394): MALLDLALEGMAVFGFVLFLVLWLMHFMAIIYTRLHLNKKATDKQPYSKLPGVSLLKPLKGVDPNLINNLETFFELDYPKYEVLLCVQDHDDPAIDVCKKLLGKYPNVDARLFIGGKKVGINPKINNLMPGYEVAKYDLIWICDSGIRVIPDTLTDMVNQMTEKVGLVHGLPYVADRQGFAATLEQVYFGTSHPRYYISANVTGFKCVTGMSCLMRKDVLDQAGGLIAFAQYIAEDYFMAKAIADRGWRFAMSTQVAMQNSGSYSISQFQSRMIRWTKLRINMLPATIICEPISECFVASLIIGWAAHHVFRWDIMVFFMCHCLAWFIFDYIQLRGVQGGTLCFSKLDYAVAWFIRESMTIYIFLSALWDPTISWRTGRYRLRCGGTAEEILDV
Description: The assay for inhibition of GCS was performed essentially as described in Platt et al., J. Biol. Chem., 1994, 269, 27108, the enzyme source being human recombinant GCS expressed in insect cells.

IC50 [1]: 2.5 µM
IC50 [2]: 4.8 µM
Structure (SMILES): CCCCCOc1ccc(CN2C[C@H](O)[C@@H](O)[C@@H](O)[C@@H]2CO)cc1 [Example 1, 3,4,5-Piperidinetriol, 2-(hydroxymethyl)-1-[(4-(pentyloxy)phenyl)methyl]-, (2S,3S,4R,5S)]
